Assay results from US20260232767A1, “INTERLEUKIN-23 RECEPTOR ANTAGONIST PEPTIDES FOR USE IN THE TREATMENT OF PSORIASIS” (Janssen Pharmaceutica NV, priority 2023, published 2026).

Tested on: subjects with moderate-to-severe plaque psoriasis
Test: Safety, adverse events, Example 2 through Week 56
Type: in vivo, human
Details: 50 mg QD
Source text: The LTE safety analysis was based on randomized participants in Example who entered the present long-term extension study and received at least one dose of study intervention (including a partial dose) during the study period.

## CC(=O)NCCCC[C@@H]1NC(=O)[C@H](Cc2c[nH]c3c(C)cccc23)NC(=O)[C@H]([C@@H](C)O)NC(=O)[C@H](CC(N)=O)NC(=O)[C@@H](NC(C)=O)C(C)(C)SSC(C)(C)[C@@H](C(=O)N[C@@H](Cc2ccc(OCCN)cc2)C(=O)N[C@@H](Cc2ccc3ccccc3c2)C(=O)NC2(C(=O)N[C@@H](CCC(=O)O)C(=O)N[C@@H](CC(N)=O)C(=O)N[C@@H](Cc3cccnc3)C(=O)N(C)CC(N)=O)CCOCC2)NC1=O [IL-23 receptor antagonist peptide, Ac-[Pen]*-N-T-[W(7-Me)]-[Lys(Ac)]-[Pen]*-Phe[4-(2-aminoethoxy)]-[2-Nal]-[THP]-E-N-[3-Pal]-Sarc-NH2 (*[Pen]-[Pen]* formdisulfidebond)]
Week 16-56
  Subjects with AE leading to discontinuation: Insomnia: 0
  Subjects with AE leading to discontinuation: Investigations: 0
  Subjects with AE leading to discontinuation: Nervous system disorders: 0
  Subjects with AE leading to discontinuation: Proctalgia: 0
  Subjects with AE leading to discontinuation: Psoriasis: 0
  Subjects with AE leading to discontinuation: Psychiatric disorders: 0
  Subjects with AE leading to discontinuation: Skin and subcutaneous tissue disorders: 0
  Subjects with AE leading to discontinuation: Vertigo: 0
  Subjects with AE leading to discontinuation: Vomiting: 0
  Subjects with COVID-19 associated AE of interest: SARS-CoV-2 test positive: 0
  Subjects with treatment-emergent AE: Headache: 0
  Subjects with treatment-emergent AE: Meniscus injury: 0
  Subjects with treatment-emergent AE: Nervous system disorders: 0
  Subjects with treatment-emergent AE: Vomiting: 0
  Subjects with treatment-emergent serious AE: Cerebrovascular accident: 0
  Subjects with treatment-emergent serious AE: Diverticulitis: 0
  Subjects with treatment-emergent serious AE: Infections and infestations: 0
  Subjects with treatment-emergent serious AE: Injury, poisoning and procedural complications: 0
  Subjects with treatment-emergent serious AE: Intervertebral disc protrusion: 0
  Subjects with treatment-emergent serious AE: Ligament injury: 0
  Subjects with treatment-emergent serious AE: Neoplasms benign, malignant and unspecified (incl cysts and polyps): 0
  Subjects with treatment-emergent serious AE: Nervous system disorders: 0
  Subjects with treatment-emergent serious AE: Respiratory, thoracic and mediastinal disorders: 0
  Subjects with treatment-emergent serious AE: Tonsillar hypertrophy: 0
  Subjects with treatment-emergent serious AE: Uterine leiomyoma: 0
  Subjects with treatment-emergent serious AE: Ventricular dysfunction: 0
Through Week 56
  Acrochordon: number of subjects: 0
  Actinic keratosis: % of subjects: (2.3%)
  Actinic keratosis: number of subjects: 1
  Alopecia: number of subjects: 0
  Asthenia: number of subjects: 0
  Asthma: number of subjects: 0
  Atrioventricular block first degree: number of subjects: 0
  Basal cell carcinoma: % of subjects: (2.3%)
  Basal cell carcinoma: number of subjects: 1
  Blood and lymphatic system disorders: % of subjects: (7.0%)
  Blood and lymphatic system disorders: number of subjects: 3
  Bronchitis chronic: number of subjects: 0
  Bundle branch block right: number of subjects: 0
  Cardiac disorders: % of subjects: (2.3%)
  Cardiac disorders: number of subjects: 1
  Chills: number of subjects: 0
  Cholelithiasis: number of subjects: 0
  Chronic obstructive pulmonary disease: number of subjects: 0
  Coronary artery disease: % of subjects: (2.3%)
  Coronary artery disease: number of subjects: 1
  Cough: % of subjects: (4.7%)
  Cough: number of subjects: 2
  Decreased appetite: number of subjects: 0
  Depression: number of subjects: 0
  Dermal cyst: number of subjects: 0
  Dermatitis acneiform: number of subjects: 0
  Dermatitis contact: % of subjects: (2.3%)
  Dermatitis contact: number of subjects: 1
  Diabetes mellitus: number of subjects: 0
  Diffuse alopecia: number of subjects: 0
  Dysuria: number of subjects: 0
  Ear and labyrinth disorders: number of subjects: 0
  Endocrine disorders: number of subjects: 0
  Eye disorders: number of subjects: 0
  Eyelid skin dryness: number of subjects: 0
  Fatigue: % of subjects: (2.3%)
  Fatigue: number of subjects: 1
  General disorders and administration site conditions: % of subjects: (7.0%)
  General disorders and administration site conditions: number of subjects: 3
  Goiter: number of subjects: 0
  Haemochromatosis: number of subjects: 0
  Hand dermatitis: number of subjects: 0
  Hematuria: % of subjects: (2.3%)
  Hematuria: number of subjects: 1
  Hepatobiliary disorders: number of subjects: 0
  Hypercholesterolemia: number of subjects: 0
  Hyperglycemia: % of subjects: (2.3%)
  Hyperglycemia: number of subjects: 1
  Hyperlipidemia: number of subjects: 0
  Hypertension: % of subjects: (2.3%)
  Hypertension: number of subjects: 1
  Hypertransaminasemia: number of subjects: 0
  Hypertriglyceridemia: number of subjects: 0
  Hypoacusis: number of subjects: 0
  Immune system disorders: % of subjects: (2.3%)
  Immune system disorders: number of subjects: 1
  Influenza like illness: number of subjects: 0
  Insomnia: number of subjects: 0
  Intertrigo: number of subjects: 0
  Ketonuria: number of subjects: 0
  Leukocyturia: number of subjects: 0
  Leukopenia: % of subjects: (2.3%)
  Leukopenia: number of subjects: 1
  Libido decreased: number of subjects: 0
  Liver disorder: number of subjects: 0
  Lymphopenia: % of subjects: (4.7%)
  Lymphopenia: number of subjects: 2
  Menopause: % of subjects: (2.3%)
  Menopause: number of subjects: 1
  Metabolism and nutrition disorders: % of subjects: (2.3%)
  Metabolism and nutrition disorders: number of subjects: 1
  Neoplasms benign, malignant and unspecified (incl cysts and polyps): % of subjects: (4.7%)
  Neoplasms benign, malignant and unspecified (incl cysts and polyps): number of subjects: 2
  Nephrolithiasis: number of subjects: 0
  Neutropenia: % of subjects: (4.7%)
  Neutropenia: number of subjects: 2
  Night sweats: % of subjects: (2.3%)
  Night sweats: number of subjects: 1
  Non-cardiac chest pain: % of subjects: (2.3%)
  Non-cardiac chest pain: number of subjects: 1
  Ocular cyst: number of subjects: 0
  Oedema peripheral: % of subjects: (2.3%)
  Oedema peripheral: number of subjects: 1
  Oropharyngeal pain: number of subjects: 0
  Procedural pain: number of subjects: 0
  Productive cough: number of subjects: 0
  Proteinuria: number of subjects: 0
  Pruritus: % of subjects: (2.3%)
  Pruritus: number of subjects: 1
  Psoriasis: number of subjects: 0
  Psychiatric disorders: number of subjects: 0
  Pyrexia: number of subjects: 0
  Rash pruritic: number of subjects: 0
  Renal and urinary disorders: % of subjects: (2.3%)
  Renal and urinary disorders: number of subjects: 1
